{
  "source": "patent US10513519B2",
  "about": "“Solid forms of (1S,4S)-4-(2-(((3S,4R)-3-fluorotetrahydro-2H-pyran-4-yl)amino)-8-((2,4,6-trichlorophenyl)amino)-9H-purin-9-yl)-1-methylcyclohexane-1-carboxamide and methods of their use” (Signal Pharmaceuticals, LLC, priority 2016, dated 2019)",
  "test_system": "64 cancer cell lines",
  "experiment": "Anti-proliferative activity across a panel of 64 cancer cell lines (CellTiter-Glo)",
  "format": "cell-based",
  "experimental": "Prior to testing, cells were grown and expanded in culture flasks to provide sufficient amounts of starting material. Cells were then diluted to the appropriate densities and added directly to the compound-spotted 384-well plates. Cells were allowed to grow for 72 h at 37° C./5% CO2. At the time when compound was added (to), initial cell number was assessed via a viability assay (Cell Titer-Glo) by quantifying the level of luminescence generated by ATP present in viable cells. After 72 h, cell viability of compound-treated cells was assessed via Cell Titer-Glo and luminescence measurement. The apoptotic response to Compound 1 was assessed by quantifying the activities of caspase 3 and caspase 7 (Caspase 3/7-Glo) in treated cells and DMSO control cells.\nCells were treated with DMSO or increasing concentrations of Compound 1 for 72 h. Proliferation was measured using CellTiter-Glo as described.",
  "key": {"[1]": {"details": "HUH-6-clone5, 72 h, HuH-6-Clone5 (Liver)"}, "[2]": {"details": "HepG2/C3A, 72 h, HepG2/C3A (Liver)"}, "[3]": {"details": "Homo sapiens, A549, 72 h, A549 (Lung)"}, "[4]": {"details": "Homo sapiens, A-375, 72 h, A375 (Melanoma)"}, "[5]": {"details": "Homo sapiens, BXPC-3, 72 h, BxPC-3 (Pancreas)"}, "[6]": {"details": "Homo sapiens, CFPAC-1, 72 h, CFPAC-1 (Pancreas)"}, "[7]": {"details": "Homo sapiens, COLO 205, 72 h, Colo 205 (Colon)"}, "[8]": {"details": "Homo sapiens, HCT-116, 72 h, HCT-116 (Colon)"}, "[9]": {"details": "Homo sapiens, HOP-62, 72 h, HOP62 (Lung)"}, "[10]": {"details": "Homo sapiens, HOP-92, 72 h, HOP92 (Lung)"}, "[11]": {"details": "Homo sapiens, HT-29, 72 h, HT29 (Colon)"}, "[12]": {"details": "Homo sapiens, HT-29, 72 h, HT29/219 (Colon)"}, "[13]": {"details": "Homo sapiens, Hep3B, 72 h, Hep3B (Liver)"}, "[14]": {"details": "Homo sapiens, HepG2, 72 h, HepG2 (Liver)"}, "[15]": {"details": "Homo sapiens, HuCCT-1, 72 h, HuCCT1 (Liver)"}, "[16]": {"details": "Homo sapiens, HuH-1, 72 h, HuH-1 (Liver)"}, "[17]": {"details": "Homo sapiens, Huh-7, 72 h, HuH-7 (Liver)"}, "[18]": {"details": "Homo sapiens, K562, 72 h, K-562 (Leukemia)"}, "[19]": {"details": "Homo sapiens, KATO III, 72 h, KATOIII, Stomach"}, "[20]": {"details": "Homo sapiens, LOX IMVI, 72 h, LOX-IMVI (Melanoma)"}, "[21]": {"details": "Homo sapiens, LoVo, 72 h, LOVO (Colon)"}, "[22]": {"details": "Homo sapiens, MDA-MB-231, 72 h, MDA-MB-231 (Breast)"}},
  "data": [
    {"smiles": "C[C@]1(C(N)=O)CC[C@@H](n2c(Nc3c(Cl)cc(Cl)cc3Cl)nc3cnc(N[C@@H]4CCOC[C@H]4F)nc32)CC1", "note": "[Compound 1, cis-4-[2-{[(3S,4R)-3-fluorooxan-4-yl]amino}-8-(2,4,6-trichloroanilino)-9H-purin-9-yl]-1-methylcyclohexane-1-carboxamide]", "values": [
      {"measurement": "GI50", "setting": "72 h, 92-1 (Melanoma)", "value": 10.2, "unit": "nM"},
      {"measurement": "IC50", "setting": "72 h, 92-1 (Melanoma)", "value": 31.6, "unit": "nM"},
      {"measurement": "GI50", "setting": "72 h, AGS, Stomach", "value": 23, "unit": "nM"},
      {"measurement": "IC50", "setting": "72 h, AGS, Stomach", "value": 28, "unit": "nM"},
      {"measurement": "GI50", "setting": "72 h, FOCUS (Liver)", "value": 1500, "unit": "nM"},
      {"measurement": "IC50", "setting": "72 h, FOCUS (Liver)", "value": 4300, "unit": "nM"},
      {"measurement": "GI50", "setting": "72 h, HLE (Liver)", "value": 4850, "unit": "nM"},
      {"measurement": "IC50", "setting": "72 h, HLE (Liver)", "value": 9620, "unit": "nM"},
      {"measurement": "GI50", "setting": "72 h, HLF (Liver)", "value": 6680, "unit": "nM"},
      {"measurement": "IC50", "setting": "72 h, HLF (Liver)", "value": 7390, "unit": "nM"},
      {"measurement": "GI50", "setting": "72 h, JHH-5 (Liver)", "value": 4.5, "unit": "nM"},
      {"measurement": "IC50", "setting": "72 h, JHH-5 (Liver)", "value": 7, "unit": "nM"},
      {"measurement": "GI50", "setting": "72 h, JHH-6 (Liver)", "value": 10000, "unit": "nM"},
      {"measurement": "IC50", "setting": "72 h, JHH-6 (Liver)", "value": 10000, "unit": "nM"},
      {"measurement": "GI50", "setting": "72 h, PC-9 (Lung)", "value": 217, "unit": "nM"},
      {"measurement": "IC50", "setting": "72 h, PC-9 (Lung)", "value": 379, "unit": "nM"},
      {"measurement": "proliferation of multiple cancer cell lines", "setting": "72 h, CRC, melanoma, gastric cancer, HCC, lung cancer, pancreatic cancer, leukemia, multiple myeloma", "value": "inhibit the proliferation"},
      {"measurement": "GI50", "setting": "[1]", "value": 29.1, "unit": "nM"},
      {"measurement": "IC50", "setting": "[1]", "value": 1220, "unit": "nM"},
      {"measurement": "GI50", "setting": "[2]", "value": 4620, "unit": "nM"},
      {"measurement": "IC50", "setting": "[2]", "value": 10000, "unit": "nM"},
      {"measurement": "GI50", "setting": "[3]", "value": 40.2, "unit": "nM"},
      {"measurement": "IC50", "setting": "[3]", "value": 82.2, "unit": "nM"},
      {"measurement": "GI50", "setting": "[4]", "value": 21, "unit": "nM"},
      {"measurement": "IC50", "setting": "[4]", "value": 24, "unit": "nM"},
      {"measurement": "GI50", "setting": "[5]", "value": 36.8, "unit": "nM"},
      {"measurement": "IC50", "setting": "[5]", "value": 70.8, "unit": "nM"},
      {"measurement": "GI50", "setting": "[6]", "value": 1950, "unit": "nM"},
      {"measurement": "IC50", "setting": "[6]", "value": 7400, "unit": "nM"},
      {"measurement": "GI50", "setting": "[7]", "value": 25, "unit": "nM"},
      {"measurement": "IC50", "setting": "[7]", "value": 40, "unit": "nM"},
      {"measurement": "GI50", "setting": "[8]", "value": 17, "unit": "nM"},
      {"measurement": "IC50", "setting": "[8]", "value": 22, "unit": "nM"},
      {"measurement": "GI50", "setting": "[9]", "value": 339, "unit": "nM"},
      {"measurement": "IC50", "setting": "[9]", "value": 3490, "unit": "nM"},
      {"measurement": "GI50", "setting": "[10]", "value": 108, "unit": "nM"},
      {"measurement": "IC50", "setting": "[10]", "value": 117, "unit": "nM"},
      {"measurement": "GI50", "setting": "[11]", "value": 16, "unit": "nM"},
      {"measurement": "IC50", "setting": "[11]", "value": 25, "unit": "nM"},
      {"measurement": "GI50", "setting": "[12]", "value": 1.7, "unit": "nM"},
      {"measurement": "IC50", "setting": "[12]", "value": 4.5, "unit": "nM"},
      {"measurement": "GI50", "setting": "[13]", "value": 5.3, "unit": "nM"},
      {"measurement": "IC50", "setting": "[13]", "value": 14.7, "unit": "nM"},
      {"measurement": "GI50", "setting": "[14]", "value": 34.6, "unit": "nM"},
      {"measurement": "IC50", "setting": "[14]", "value": 1240, "unit": "nM"},
      {"measurement": "GI50", "setting": "[15]", "value": 25.3, "unit": "nM"},
      {"measurement": "IC50", "setting": "[15]", "value": 1300, "unit": "nM"},
      {"measurement": "GI50", "setting": "[16]", "value": 235, "unit": "nM"},
      {"measurement": "IC50", "setting": "[16]", "value": 7260, "unit": "nM"},
      {"measurement": "GI50", "setting": "[17]", "value": 21.2, "unit": "nM"},
      {"measurement": "IC50", "setting": "[17]", "value": 489, "unit": "nM"},
      {"measurement": "GI50", "setting": "[18]", "value": 5420, "unit": "nM"},
      {"measurement": "IC50", "setting": "[18]", "value": 6030, "unit": "nM"},
      {"measurement": "GI50", "setting": "[19]", "value": 7050, "unit": "nM"},
      {"measurement": "IC50", "setting": "[19]", "value": 8020, "unit": "nM"},
      {"measurement": "GI50", "setting": "[20]", "value": 22, "unit": "nM"},
      {"measurement": "IC50", "setting": "[20]", "value": 25, "unit": "nM"},
      {"measurement": "GI50", "setting": "[21]", "value": 63, "unit": "nM"},
      {"measurement": "IC50", "setting": "[21]", "value": 126, "unit": "nM"},
      {"measurement": "GI50", "setting": "[22]", "value": 35.3, "unit": "nM"},
      {"measurement": "IC50", "setting": "[22]", "value": 3330, "unit": "nM"},
      {"measurement": "GI50", "setting": "Homo sapiens, MIA PaCa-2, 72 h, MiaPaCa-2 (Pancreas)", "value": 47, "unit": "nM"},
      {"measurement": "GI50", "setting": "Homo sapiens, Malme-3M, 72 h, MALME-3M (Melanoma)", "value": 1.1, "unit": "nM"}
    ]}
  ]
}
